Measured values taken from US20230165831A1, “METHOD AND COMPOSITION FOR RENDERING CANCER CELLS SUSCEPTIBLE TO TREATMENT BY TARGETED ONCOGENETIC DRIVERS” (IMPACT BIOLIFE SCIENCE, INC., priority 2021, published 2023).
Read-outs that look alike come from different tables or passages of the source.

Assays:
[1] = test system: kidney cancer line 786-O cells; test: CTG (CellTiter-Glo) cell viability assay, 6×6 combo matrix, 72 h, 786-O; conditions: for Relatively Cell inhibition of vehicle control(%): 786-O;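 on all read-outs here: luminescence read-out after adding CellTiter-Glo reagent, with cells incubated at 37 °C under 5% CO2 during compound exposure, part of a ten cell line synergy study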
[2] = test system: ovarian cancer line SK-OV3 cells;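 further: luminescent signal read after CellTiter-Glo addition, cells exposed to compounds for 72 h at 37 °C under 5% CO2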
Experimental: (§1) To measure the cell inhibition effect of compounds and synergy effect of test articles on ten (10) cell lines using standard CTG assay.
(§2) 7) Using complete cell medium, adjust the volume of the suspension to achieve a cell concentration.
(§3) A549, T47D, SK-OV-3, MKN45, SK-Hep-1, HT-29, Capan-1, 786-O and LNCaP cell line, for compounds and vehicle groups, the seeding density of cell lines is 3000 cells/80 µL per well. For blank groups, add 100 µL medium. For PBS groups, add 100 µL PBS.
(§4) 8) Incubate the U87MG, A549, T47D, SK-OV-3, MKN45, SK-Hep-1, HT-29, Capan-1, 786-O and LNCaP cells overnight at 37° C./5% CO2.
(§5) Solid compound of cis-platinum was solubilized in PBS to a stock solution of 3.333 mM.
(§6) Final volume is 100 µL per well at this point.
(§7) 5) Incubate the plates at 37° C./5% CO2 for 72 hours.
(§8) 1) Incubate the plates at room temperature and away from light for 30 minutes.
(§9) 3) Add 100 µL /well of CellTiter-Glo® Reagent in each well. Avoid light.
(§10) 4) Mix contents for 2 minutes on an orbital shaker.
(§11) 5) Incubate plate at room temperature for 10 minutes to stabilize the luminescent signal.
6) Read plates in Envision.

[3] = test system: lung adenocarcinoma line A549 cells; test: CTG (CellTiter-Glo) cell viability assay, 6×6 combo matrix, 72 h, A549; conditions: for Relatively Cell inhibition of vehicle control(%): A549;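 on all read-outs here: luminescent ATP readout with CellTiter-Glo after compound exposure, used to assess growth inhibition and combination synergy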
Experimental: as §1, §2, §3, §4, §5, §6, §7, §8, §9, §10, §11
6) Read plates in Envision.

[4] = test system: Liver cancer line SK-HEP-1 cells;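 further: luminescent signal read after 72 h compound exposure at 37 °C under 5% CO2, with medium-only wells serving as blank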
[5] = test system: breast cancer line T47D cells;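 further: luminescence read-out after 72 h at 37 °C under 5% CO2, with medium-only wells as blanks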
[6] = test system: glioblastoma line U87MG cells; test: CTG (CellTiter-Glo) cell viability assay, 6×6 combo matrix, 72 h, U87MG; conditions: Homo sapiens, U-87 MG;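 further: U87MG cells seeded at 2000 per well, exposed 72 h, viability read by CellTiter-Glo luminescence, inhibition expressed relative to vehicle-treated wells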
Experimental: as §1, §2
U87MG cell lines, for compounds and vehicle groups, the seeding density of cell lines is 2000 cells/80 µL per well. For blank groups, add 100 µL medium. For PBS groups, add 100 µL PBS.
as §4, §5, §6, §7, §8, §9, §10, §11
6) Read plates in Envision.

[7] = test system: Liver cancer line SK-HEP-1 cells; test: CTG (CellTiter-Glo) cell viability assay, 6×6 combo matrix, 72 h, SK-Hep-1; conditions: Homo sapiens;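 further: luminescent signal read after 72 h compound exposure at 37 °C under 5% CO2, with medium-only wells serving as blank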
[8] = test system: colorectal cancer line HT29 cells; test: CTG (CellTiter-Glo) cell viability assay, 6×6 combo matrix, 72 h, HT29; conditions: for Relatively Cell inhibition of vehicle control(%): HT29;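 on all read-outs here: cells exposed to compounds for 72 hours at 37 °C under 5% CO2, then viability read as luminescence after adding CellTiter-Glo Reagent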
Experimental: as §1, §2
(§12) b. A549, T47D, SK-OV-3, MKN45, SK-Hep-1, HT-29, Capan-1, 786-O and LNCaP cell line, for compounds and vehicle groups, the seeding density of cell lines is 3000 cells/80 µL per well. For blank groups, add 100 µL medium. For PBS groups, add 100 µL PBS.
as §4, §5, §6, §7, §8, §9, §10, §11
6) Read plates in Envision.

[9] = test system: kidney cancer line 786-O cells;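 further: luminescence read-out after adding CellTiter-Glo reagent, with cells incubated at 37 °C under 5% CO2 during compound exposure, part of a ten cell line synergy study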
[10] = test system: prostate adenocarcinoma line LNCap cells;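 further: luminescence signal read after adding CellTiter-Glo reagent, with cells exposed to compounds for 72 h at 37 °C under 5% CO2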
Experimental: as §1, §2, §12, §4, §5, §6, §7, §8, §9, §10, §11
6) Read plates in Envision.

[11] = test system: breast cancer line T47D cells; test: CTG (CellTiter-Glo) cell viability assay, 6×6 combo matrix, 72 h, T47D; conditions: Homo sapiens;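 further: luminescence read-out after 72 h at 37 °C under 5% CO2, with medium-only wells as blanks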
[12] = test system: ovarian cancer line SK-OV3 cells; test: CTG (CellTiter-Glo) cell viability assay, 6×6 combo matrix, 72 h, SK-OV-3; conditions: for Relatively Cell inhibition of vehicle control(%): SK-OV-3;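 on all read-outs here: luminescent signal read after CellTiter-Glo addition, cells exposed to compounds for 72 h at 37 °C under 5% CO2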
Experimental: as §1, §2, §3, §4, §5, §6, §7, §8, §9, §10, §11
6) Read plates in Envision.

[13] = test system: prostate adenocarcinoma line LNCap cells; test: CTG (CellTiter-Glo) cell viability assay, 6×6 combo matrix, 72 h, LNCaP; conditions: Homo sapiens, LNCaP;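 further: luminescence signal read after adding CellTiter-Glo reagent, with cells exposed to compounds for 72 h at 37 °C under 5% CO2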
Experimental: as §1, §2, §12, §4, §5, §6, §7, §8, §9, §10, §11
6) Read plates in Envision.

[14] = Homo sapiens, 786-0, read-out: Relatively Cell inhibition of vehicle control
[15] = Homo sapiens, A549, read-out: Relatively Cell inhibition of vehicle control(%)
[16] = read-out: Relatively Cell inhibition of vehicle control(%), topotecan 16 nM only (myricetin plate)
[17] = read-out: Relatively Cell inhibition of vehicle control(%), topotecan 80 nM only (myricetin plate)
[18] = read-out: Relatively Cell inhibition of vehicle control(%), topotecan 400 nM only (myricetin plate)
[19] = read-out: Relatively Cell inhibition of vehicle control(%), topotecan 2000 nM only (myricetin plate)
[20] = read-out: Relatively Cell inhibition of vehicle control(%), topotecan 10000 nM only (myricetin plate)
[21] = Homo sapiens, HT-29, read-out: Relatively Cell inhibition of vehicle control(%)

SMILES: CC[C@@]1(O)C(=O)OCc2c1cc1n(c2=O)Cc2cc3c(CN(C)C)c(O)ccc3nc2-1 [topotecan]
- inhibition at 0.08 µM [1, 14]: 68.1%
- inhibition at 0.4 µM [1, 14]: 82.5%
- inhibition at 2 µM [1, 14]: 91.7%
- inhibition at 10 µM [1, 14]: 93.9%
- Relatively Cell inhibition of vehicle control(%) ([1]; Top 80 nM only (LB-1 0)): 68.14%
- Relatively Cell inhibition of vehicle control(%) ([1]; Top 400 nM only (LB-1 0)): 83.15%
- Relatively Cell inhibition of vehicle control(%) ([1]; Top 2000 nM only (LB-1 0)): 91.65%
- Relatively Cell inhibition of vehicle control(%) ([1]; Top 10000 nM only (LB-1 0)): 93.59%
- inhibition [2]: 23%
- inhibition at 0.08 µM [3, 15]: 34.9%
- inhibition at 0.4 µM [3, 15]: 60%
- inhibition at 2 µM [3, 15]: 79.7%
- inhibition at 10 µM [3, 15]: 94.4%
- Relatively Cell inhibition of vehicle control(%) ([3]; Top 16 nM only): -0.68%
- Relatively Cell inhibition of vehicle control(%) ([3]; Top 80 nM only): 37.94%
- Relatively Cell inhibition of vehicle control(%) ([3]; Top 400 nM only): 62.21%
- Relatively Cell inhibition of vehicle control(%) ([3]; Top 2000 nM only): 80.57%
- Relatively Cell inhibition of vehicle control(%) ([3]; Top 10000 nM only): 93.99%
- inhibition [4]: -0.38%
- inhibition [5]: 2.49%
- inhibition at […] ([6]; read-out: Relatively Cell inhibition of vehicle control(%), topotecan 16 nM only): 15.6%
- inhibition at […] [6, 16]: 11.4%
- inhibition at 0.08 µM ([6]; read-out: Relatively Cell inhibition of vehicle control(%), topotecan 80 nM only): 49.3%
- inhibition at 0.08 µM [6, 17]: 51.6%
- inhibition at 0.4 µM ([6]; read-out: Relatively Cell inhibition of vehicle control(%), topotecan 400 nM only): 64.1%
- inhibition at 0.4 µM [6, 18]: 66.2%
- inhibition at 2 µM ([6]; read-out: Relatively Cell inhibition of vehicle control(%), topotecan 2000 nM only): 73.5%
- inhibition at 2 µM [6, 19]: 76.3%
- inhibition at 10 µM ([6]; read-out: Relatively Cell inhibition of vehicle control(%), topotecan 10000 nM only): 82.1%
- inhibition at 10 µM [6, 20]: 83.4%
- inhibition at […] ([7]; SK-HEP1, read-out: Relatively Cell inhibition of vehicle control, topotecan 16 nM only (myricetin table)): -4.24%
- inhibition at 0.08 µM ([7]; SK-HEP1, read-out: Relatively Cell inhibition of vehicle control, topotecan 80 nM only (LB-1 table)): 9.52%
- inhibition at 0.08 µM ([7]; SK-HEP1, read-out: Relatively Cell inhibition of vehicle control, topotecan 80 nM only (myricetin table)): 16%
- inhibition at 0.4 µM ([7]; SK-HEP1, read-out: Relatively Cell inhibition of vehicle control, topotecan 400 nM only (LB-1 table)): 35.4%
- inhibition at 0.4 µM ([7]; SK-HEP1, read-out: Relatively Cell inhibition of vehicle control, topotecan 400 nM only (myricetin table)): 37.7%
- inhibition at 2 µM ([7]; SK-HEP1, read-out: Relatively Cell inhibition of vehicle control, topotecan 2000 nM only (LB-1 table)): 70.3%
- inhibition at 2 µM ([7]; SK-HEP1, read-out: Relatively Cell inhibition of vehicle control, topotecan 2000 nM only (myricetin table)): 74.2%
- inhibition at 10 µM ([7]; SK-HEP1, read-out: Relatively Cell inhibition of vehicle control, topotecan 10000 nM only (LB-1 table)): 98.6%
- inhibition at 10 µM ([7]; SK-HEP1, read-out: Relatively Cell inhibition of vehicle control, topotecan 10000 nM only (myricetin table)): 99.1%
- inhibition at 1 µM ([7]; SK-HEP1, read-out: inhibition rate, 1000 nM topotecan only (footnote of the LB-1 table)): 98.6%
- inhibition at 0.08 µM [8, 21]: 26.1%
- inhibition at 0.4 µM [8, 21]: 64.8%
- inhibition at 2 µM [8, 21]: 93.2%
- inhibition at 10 µM [8, 21]: 79.4%
- Relatively Cell inhibition of vehicle control(%) ([8]; Top 16 nM only (Myr 0)): 11.50%
- Relatively Cell inhibition of vehicle control(%) ([8]; Top 80 nM only (Myr 0)): 21.57%
- Relatively Cell inhibition of vehicle control(%) ([8]; Top 400 nM only (Myr 0)): 71.12%
- Relatively Cell inhibition of vehicle control(%) ([8]; Top 2000 nM only (Myr 0)): 94.54%
- Relatively Cell inhibition of vehicle control(%) ([8]; Top 10000 nM only (Myr 0)): 82.42%
- inhibition [9]: 2.61%
- inhibition [10]: 15.4%
- inhibition at […] ([11]; read-out: Relatively Cell inhibition of vehicle control(%), T47D, 16 nM topotecan only (myricetin 0)): 12.5%
- inhibition at 0.08 µM ([11]; read-out: Relatively Cell inhibition of vehicle control(%), T47D, 80 nM topotecan only (LB-1 0)): 29.6%
- inhibition at 0.08 µM ([11]; read-out: Relatively Cell inhibition of vehicle control(%), T47D, 80 nM topotecan only (myricetin 0)): 36.9%
- inhibition at 0.4 µM ([11]; read-out: Relatively Cell inhibition of vehicle control(%), T47D, 400 nM topotecan only (LB-1 0)): 45.7%
- inhibition at 0.4 µM ([11]; read-out: Relatively Cell inhibition of vehicle control(%), T47D, 400 nM topotecan only (myricetin 0)): 53.9%
- inhibition at 2 µM ([11]; read-out: Relatively Cell inhibition of vehicle control(%), T47D, 2000 nM topotecan only (LB-1 0)): 58.3%
- inhibition at 2 µM ([11]; read-out: Relatively Cell inhibition of vehicle control(%), T47D, 2000 nM topotecan only (myricetin 0)): 62.7%
- inhibition at 10 µM ([11]; read-out: Relatively Cell inhibition of vehicle control(%), T47D, 10000 nM topotecan only (LB-1 0)): 57.7%
- inhibition at 10 µM ([11]; read-out: Relatively Cell inhibition of vehicle control(%), T47D, 10000 nM topotecan only (myricetin 0)): 61.9%
- inhibition at 1 µM ([12]; Homo sapiens, SK-OV-3, read-out: inhibition rate): 93.9%
- Relatively Cell inhibition of vehicle control(%) ([12]; Top 16 nM only (myricetin matrix)): 21.67%
- Relatively Cell inhibition of vehicle control(%) ([12]; Top 80 nM only (LB-1 matrix)): 68.74%
- Relatively Cell inhibition of vehicle control(%) ([12]; Top 80 nM only (myricetin matrix)): 67.77%
- Relatively Cell inhibition of vehicle control(%) ([12]; Top 400 nM only (LB-1 matrix)): 83.70%
- Relatively Cell inhibition of vehicle control(%) ([12]; Top 400 nM only (myricetin matrix)): 82.50%
- Relatively Cell inhibition of vehicle control(%) ([12]; Top 2000 nM only (LB-1 matrix)): 90.55%
- Relatively Cell inhibition of vehicle control(%) ([12]; Top 2000 nM only (myricetin matrix)): 90.97%
- Relatively Cell inhibition of vehicle control(%) ([12]; Top 10000 nM only (myricetin matrix)): 94.18%
- inhibition at […] [13, 16]: 17.6%
- inhibition at 0.08 µM ([13]; read-out: Relatively Cell inhibition of vehicle control(%), topotecan 80 nM only (LB-1 plate)): 37.8%
- inhibition at 0.08 µM [13, 17]: 40.1%
- inhibition at 0.4 µM ([13]; read-out: Relatively Cell inhibition of vehicle control(%), topotecan 400 nM only (LB-1 plate)): 55.9%
- inhibition at 0.4 µM [13, 18]: 60%
- inhibition at 2 µM ([13]; read-out: Relatively Cell inhibition of vehicle control(%), topotecan 2000 nM only (LB-1 plate)): 82.1%
- inhibition at 2 µM [13, 19]: 83.6%
- inhibition at 10 µM ([13]; read-out: Relatively Cell inhibition of vehicle control(%), topotecan 10000 nM only (LB-1 plate)): 84.8%
- inhibition at 10 µM [13, 20]: 87.5%
